The record followed here is PubChem BioAssay (NCI).

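Results reflect a 48-hour exposure of cells in 96-well plates to compound at five concentrations. TGI: concentration producing complete growth inhibition.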

The subject of one assay is SK-OV-3 ovarian. Kind of assay: growth of human tumour cells (NCI), 48 h.
In the case of `Oc1c(N2CCCCC2)cc(-c2cc(N3CCCCC3)c(O)c3ccccc23)c2ccccc12`, the TGI is more than 100 µM.

For `O=c1cc(Nc2cccc(O)c2)[nH]c(=O)[nH]1`, the TGI was more than 100 µM.

Regarding `NCCOc1cccc(C2(N3CCCCC3)CCCCC2)c1`, the TGI was more than 100 µM.

The compound `COC(=O)[C@@]12OC[C@]34C([C@@H](O)C1O)[C@@]1(C)CC(=O)C(OC(=O)CC(C)C(F)(F)F)=C(C)C1C[C@H]3OC(=O)[C@H](O)[C@H]42` (stereo partly drawn) showed a TGI of more than 62.5 µM.

For `CCCCCCCCCCCCCCCCCCNc1ccn(C2OC(COP(=O)(O)OCC3OC(n4ccc(N)nc4=O)C(O)C3O)C(O)C2O)c(=O)n1` (stereo not drawn), the TGI is more than 100 µM.

The compound `CCOc1cnc(C(O)(c2ccccc2)c2ccccc2)o1` came in with a TGI of more than 100 µM.

As for `CC(=O)c1ccc(Nc2c3c(nc4ccccc24)CCCC3)cc1`, the TGI was more than 70.8 µM.

`S=C1Cc2c(-c3ccccc3)cc(-c3cccc(Cl)c3)nc2-c2ccccc2N1` returned a TGI of 17.4 µM.

Turning to `N#Cc1c(NC(=O)C(F)(F)F)sc2c3c(=O)c4ccccc4c(=O)c=3oc3ccccc3c12`, the TGI is 77.2 µM.

For `Cc1c(C)c2c(c(N)c1C#N)C(=O)N(Cc1ccc(S(N)(=O)=O)cc1)C2=O`, the TGI was more than 100 µM.

The compound `CN(NC1=NCCO1)c1ccc2ccccc2c1` showed a TGI of more than 100 µM.

`COC(=O)/C=C/c1ccc(OP(=O)(O)O)c(OC)c1`: the TGI is more than 100 µM.

As to `COc1cc2nc(Cl)nc(NS(=O)(=O)c3cc4ccccc4s3)c2cc1OC`, the TGI was determined as 98.5 µM.

Turning to `COC(=O)/C=C(\C(=O)OC)c1cc(C)c2cc(C(C)C)ccc(C)c1-2`, the TGI was more than 100 µM.

Compound `C[C@@H](CC(=O)OCc1ccccc1)OC1OC(COC(=O)C(C)(C)C)C(OC(=O)C(C)(C)C)C(OC(=O)C(C)(C)C)C1OC(=O)C(C)(C)C` (stereo partly drawn) had a TGI of more than 100 µM.

`CC(C)(C)OC(=O)N(CCCCNC(=O)C(F)(F)F)CCCNC(=O)C(F)(F)F` gave a TGI of more than 100 µM.

Regarding `C=C1CC[C@@H](CCC2CCC3(OC2)O[C@]2(O)CC[C@@]3(C)OC2(C)C)C(C)(C)[C@H]1C/C=C1\CCOC1=O` (stereo partly drawn), the TGI is more than 100 µM.

In a further assay the test system is HCC-2998 colon. Kind of assay: growth of human tumour cells (NCI), 48 h.
`Oc1c(N2CCCCC2)cc(-c2cc(N3CCCCC3)c(O)c3ccccc23)c2ccccc12` gave a TGI of more than 100 µM.

Compound `O=c1cc(Nc2cccc(O)c2)[nH]c(=O)[nH]1` yielded a TGI of more than 100 µM.

For `NCCOc1cccc(C2(N3CCCCC3)CCCCC2)c1`, the TGI came out at 37.5 µM.

In turn, `COC(=O)[C@@]12OC[C@]34C([C@@H](O)C1O)[C@@]1(C)CC(=O)C(OC(=O)CC(C)C(F)(F)F)=C(C)C1C[C@H]3OC(=O)[C@H](O)[C@H]42` (stereo partly drawn) returned a TGI of 11 µM.

As for `CCCCCCCCCCCCCCCCCCNc1ccn(C2OC(COP(=O)(O)OCC3OC(n4ccc(N)nc4=O)C(O)C3O)C(O)C2O)c(=O)n1` (stereo not drawn), the TGI is more than 100 µM.

As to `CCOc1cnc(C(O)(c2ccccc2)c2ccccc2)o1`, the TGI was more than 100 µM.

`CC(=O)c1ccc(Nc2c3c(nc4ccccc24)CCCC3)cc1` came in with a TGI of more than 100 µM.

As to `S=C1Cc2c(-c3ccccc3)cc(-c3cccc(Cl)c3)nc2-c2ccccc2N1`, the TGI amounted to 18.7 µM.

Compound `N#Cc1c(NC(=O)C(F)(F)F)sc2c3c(=O)c4ccccc4c(=O)c=3oc3ccccc3c12` came in with a TGI of 31 µM.

Consider `Cc1c(C)c2c(c(N)c1C#N)C(=O)N(Cc1ccc(S(N)(=O)=O)cc1)C2=O`, for which the TGI was more than 100 µM.

`CN(NC1=NCCO1)c1ccc2ccccc2c1` displayed a TGI of 99.4 µM.

`COC(=O)/C=C/c1ccc(OP(=O)(O)O)c(OC)c1` had a TGI of more than 100 µM.

Regarding `COc1cc2nc(Cl)nc(NS(=O)(=O)c3cc4ccccc4s3)c2cc1OC`, the TGI is 39.3 µM.

Take `COC(=O)/C=C(\C(=O)OC)c1cc(C)c2cc(C(C)C)ccc(C)c1-2`: the TGI is 87.5 µM.

Take `C[C@@H](CC(=O)OCc1ccccc1)OC1OC(COC(=O)C(C)(C)C)C(OC(=O)C(C)(C)C)C(OC(=O)C(C)(C)C)C1OC(=O)C(C)(C)C` (stereo partly drawn): the TGI is more than 100 µM.

`CC(C)(C)OC(=O)N(CCCCNC(=O)C(F)(F)F)CCCNC(=O)C(F)(F)F` came in with a TGI of more than 100 µM.

As for `C=C1CC[C@@H](CCC2CCC3(OC2)O[C@]2(O)CC[C@@]3(C)OC2(C)C)C(C)(C)[C@H]1C/C=C1\CCOC1=O` (stereo partly drawn), the TGI is more than 53.3 µM.

Another assay relates to HOP-92 NSCLC. The assay can be described thus: growth of human tumour cells (NCI), 48 h.
In the case of `Oc1c(N2CCCCC2)cc(-c2cc(N3CCCCC3)c(O)c3ccccc23)c2ccccc12`, the TGI amounted to 70.4 µM.

The compound `O=c1cc(Nc2cccc(O)c2)[nH]c(=O)[nH]1` yielded a TGI of more than 100 µM.

Consider `NCCOc1cccc(C2(N3CCCCC3)CCCCC2)c1`, for which the TGI was found to be 95.2 µM.

`COC(=O)[C@@]12OC[C@]34C([C@@H](O)C1O)[C@@]1(C)CC(=O)C(OC(=O)CC(C)C(F)(F)F)=C(C)C1C[C@H]3OC(=O)[C@H](O)[C@H]42` (stereo partly drawn) came in with a TGI of 23.1 µM.

Regarding `CCCCCCCCCCCCCCCCCCNc1ccn(C2OC(COP(=O)(O)OCC3OC(n4ccc(N)nc4=O)C(O)C3O)C(O)C2O)c(=O)n1` (stereo not drawn), the TGI is more than 100 µM.

On to `CCOc1cnc(C(O)(c2ccccc2)c2ccccc2)o1`, for which the TGI is more than 100 µM.

`CC(=O)c1ccc(Nc2c3c(nc4ccccc24)CCCC3)cc1` returned a TGI of more than 88.8 µM.

For `S=C1Cc2c(-c3ccccc3)cc(-c3cccc(Cl)c3)nc2-c2ccccc2N1`, the TGI is 5.12 µM.

In turn, `N#Cc1c(NC(=O)C(F)(F)F)sc2c3c(=O)c4ccccc4c(=O)c=3oc3ccccc3c12` displayed a TGI of more than 53.6 µM.

The compound `Cc1c(C)c2c(c(N)c1C#N)C(=O)N(Cc1ccc(S(N)(=O)=O)cc1)C2=O` yielded a TGI of more than 44.6 µM.

The compound `CN(NC1=NCCO1)c1ccc2ccccc2c1` came in with a TGI of 57.3 µM.

Compound `COC(=O)/C=C/c1ccc(OP(=O)(O)O)c(OC)c1` returned a TGI of more than 100 µM.

Take `COc1cc2nc(Cl)nc(NS(=O)(=O)c3cc4ccccc4s3)c2cc1OC`: the TGI turned out to be 46.8 µM.

Compound `COC(=O)/C=C(\C(=O)OC)c1cc(C)c2cc(C(C)C)ccc(C)c1-2` yielded a TGI of 77.9 µM.

Take `C[C@@H](CC(=O)OCc1ccccc1)OC1OC(COC(=O)C(C)(C)C)C(OC(=O)C(C)(C)C)C(OC(=O)C(C)(C)C)C1OC(=O)C(C)(C)C` (stereo partly drawn): the TGI was more than 100 µM.

With `CC(C)(C)OC(=O)N(CCCCNC(=O)C(F)(F)F)CCCNC(=O)C(F)(F)F`, the TGI is more than 100 µM.

`C=C1CC[C@@H](CCC2CCC3(OC2)O[C@]2(O)CC[C@@]3(C)OC2(C)C)C(C)(C)[C@H]1C/C=C1\CCOC1=O` (stereo partly drawn) came in with a TGI of 66.4 µM.

The test system of the next assay is HT29 colon. Kind of assay: growth of human tumour cells (NCI), 48 h.
In turn, `Oc1c(N2CCCCC2)cc(-c2cc(N3CCCCC3)c(O)c3ccccc23)c2ccccc12` yielded a TGI of 55.5 µM.

Consider `O=c1cc(Nc2cccc(O)c2)[nH]c(=O)[nH]1`, for which the TGI was more than 100 µM.

On to `NCCOc1cccc(C2(N3CCCCC3)CCCCC2)c1`, for which the TGI is 41.2 µM.

In turn, `COC(=O)[C@@]12OC[C@]34C([C@@H](O)C1O)[C@@]1(C)CC(=O)C(OC(=O)CC(C)C(F)(F)F)=C(C)C1C[C@H]3OC(=O)[C@H](O)[C@H]42` (stereo partly drawn) registered a TGI of more than 62.5 µM.

For `CCCCCCCCCCCCCCCCCCNc1ccn(C2OC(COP(=O)(O)OCC3OC(n4ccc(N)nc4=O)C(O)C3O)C(O)C2O)c(=O)n1` (stereo not drawn), the TGI is more than 100 µM.

On to `CCOc1cnc(C(O)(c2ccccc2)c2ccccc2)o1`, for which the TGI is more than 100 µM.

Compound `CC(=O)c1ccc(Nc2c3c(nc4ccccc24)CCCC3)cc1` yielded a TGI of 42.6 µM.

In turn, `S=C1Cc2c(-c3ccccc3)cc(-c3cccc(Cl)c3)nc2-c2ccccc2N1` yielded a TGI of 11.5 µM.

Take `N#Cc1c(NC(=O)C(F)(F)F)sc2c3c(=O)c4ccccc4c(=O)c=3oc3ccccc3c12`: the TGI is 41.6 µM.

`Cc1c(C)c2c(c(N)c1C#N)C(=O)N(Cc1ccc(S(N)(=O)=O)cc1)C2=O` gave a TGI of more than 100 µM.

In turn, `CN(NC1=NCCO1)c1ccc2ccccc2c1` gave a TGI of more than 100 µM.

With `COC(=O)/C=C/c1ccc(OP(=O)(O)O)c(OC)c1`, the TGI is more than 100 µM.

`COc1cc2nc(Cl)nc(NS(=O)(=O)c3cc4ccccc4s3)c2cc1OC` returned a TGI of 88.9 µM.

On to `COC(=O)/C=C(\C(=O)OC)c1cc(C)c2cc(C(C)C)ccc(C)c1-2`, for which the TGI came to 26.7 µM.

In the case of `C[C@@H](CC(=O)OCc1ccccc1)OC1OC(COC(=O)C(C)(C)C)C(OC(=O)C(C)(C)C)C(OC(=O)C(C)(C)C)C1OC(=O)C(C)(C)C` (stereo partly drawn), the TGI was more than 100 µM.

For the compound `CC(C)(C)OC(=O)N(CCCCNC(=O)C(F)(F)F)CCCNC(=O)C(F)(F)F`, the TGI was more than 100 µM.

`C=C1CC[C@@H](CCC2CCC3(OC2)O[C@]2(O)CC[C@@]3(C)OC2(C)C)C(C)(C)[C@H]1C/C=C1\CCOC1=O` (stereo partly drawn) displayed a TGI of 31.1 µM.
